Key:
[1] = tested on: cisplatin-induced emesis in ferrets; assay: Cisplatin-induced acute and delayed emesis in the ferret; assay type: in vivo; conditions: for reduction of retching+vomiting, entire delayed phase: delayed phase 24-72 h
Experimental: To investigate the anti-emetic potential of Compound I by preventing cisplatin-induced acute and delayed emesis in the ferret. Aprepitant was used as a positive control in this study.
40 castrated male ferrets weighing between 1.2 and 2.3 kg were used, which were obtained from Wuxi Sangosho Biotechnology Co. Ltd. (Wuxi, Jiangsu, China) and housed in groups of 2-3 at 24±1° C. with at 50±5% humidity. Artificial lighting was provided between 06:00 to 18:00 h. Water and dry pelleted cat chow were given ad libitum, unless otherwise stated. All experiments were conducted under license from the Government of the Hong Kong SAR and the Animal Experimentation Ethics Committee, The Chinese University of Hong Kong.
Compound I and aprepitant were supplied by XW Laboratories, Inc, China and were dissolved in distilled water. Cisplatin (Lot #MKBR1947V) was from Sigma-Aldrich, St. Louis, USA, and was dissolved in 0.9% w/v saline adjusted to pH 4 with 0.1N HCl. Doses were expressed as the free base, unless otherwise stated.
On the day of the experiment, groups of ferrets were administered Compound I (0.1, 0.3, 1 mg/kg, p.o.), aprepitant (1 mg/kg, p.o.), or distilled water (vehicle control, 1 mL/kg, p.o.) 2 h before cisplatin (5 mg/kg, i.p.) and then the treatments were continued at 24 h intervals (at 24 and 48 h post cisplatin). Emesis was characterized by rhythmic abdominal contractions that were either associated with the forceful oral expulsion of solid or liquid material from the gastrointestinal tract (i.e., vomiting), or not associated with the passage of material (i.e., retching movements). Consecutive episodes of retching and/or vomiting were considered separate when the animal changed its location in the observation cage, or when the interval between episodes exceeded 5 seconds.
GraphPad Prism 8 (GraphPad Software, La Jolla, Calif., United States) was used to perform statistical comparisons. Animal emesis behaviours like retching and vomiting were analyzed using a one-way analysis of variance followed by Tukey's multiple comparisons tests. The results are expressed as the mean±SEM. In all cases, differences between treatment groups were considered significant when the p value was less than 0.05.

[2] = target: human NK-1 receptor (NK-1/HEK293) (Homo sapiens (Human), UniProt P25103); assay: NK-1 calcium flux FLIPR antagonist assay; assay type: cell-based; conditions: for inhibition at 10 µM: HEK293, NK-1, max dose 10000 nM; for IC50: NK-1 FLIPR antagonist mode
Sequence of human NK-1 receptor (NK-1/HEK293) (P25103 whole entry): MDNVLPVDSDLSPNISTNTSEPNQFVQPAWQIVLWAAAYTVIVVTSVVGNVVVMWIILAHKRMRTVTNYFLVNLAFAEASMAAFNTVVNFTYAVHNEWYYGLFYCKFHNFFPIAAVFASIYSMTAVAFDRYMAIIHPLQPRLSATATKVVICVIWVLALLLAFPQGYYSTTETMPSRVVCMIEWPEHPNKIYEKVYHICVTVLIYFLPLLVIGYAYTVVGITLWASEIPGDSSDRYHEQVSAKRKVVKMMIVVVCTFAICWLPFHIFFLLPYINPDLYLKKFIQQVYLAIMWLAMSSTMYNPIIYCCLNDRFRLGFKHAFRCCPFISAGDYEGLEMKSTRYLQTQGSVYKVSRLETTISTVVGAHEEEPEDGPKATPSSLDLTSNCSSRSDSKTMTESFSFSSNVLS
Experimental: (§1) The potential antagonist activity of Compound I and IV on human NK-1/2/3 receptor was evaluated by calcium flux FLIPR assay. The results are shown in the following Table 2, while the NK-1 fitting dose-response curves for Compound I and IV are shown in FIGS. 2A and 2B, respectively.
(§2) 1. NK-1, NK-2 and NK-3 Calcium Flux FLIPR assays:
(§3) Materials: Cell Lines: NK-1/HEK293, NK-2/HEK293, NK-3/HEK293. Media: DMEM, Invitrogen (Cat #11960), FBS, Corning (Cat #35-076-CV), G418, Invitrogen (Cat #10131-027), and Blasticidin, Invitrogen (Cat #A11139). Reagent: Fluo-4 Direct, (Invitrogen, Cat #F10471).
(§4) Experimental procedure for NK-1, NK-2 and NK-3 calcium flux FLIPR assay: Perform the assay in the following steps: 1) Cell preparation: thaw each cell (NK-1, NK-2 and NK-3) in 37° C. water bath with gentle shaking, transfer cell suspensions to 50 mL conical tubes and add plating media to 45 mL mark. Count cells using a ViCell for concentration. Re-suspend the cells in the growth media to a concentration of 10×10^5 per mL. Add 20 μL per well of the cell suspension to the 384-well plates (20,000 cells/well). Place the cells at 37° C. 5% CO2 incubator overnight. 2) Calcium Flux FLIPR assay: a) Prepare Probenecid reagent by adding 1 mL FLIPR Assay Buffer to 77 mg probenecid to make 250 mM solution. b) Prepare assay reagent (2×8 μM Fluo-4 Direct™ Loading Buffer): Thaw one vial of Fluo-4 Direct™ crystals, add 10 mL of FLIPR Assay Buffer to the Vial; add 0.2 mL of Probenecid to each 10 mL vial of Fluo-Direct. c) Compounds preparation: The compounds are serially diluted in 100% DMSO 1:3 for 10 pts by Echo. Then dispense 900 nL of compounds to the 384-compound plate. Remove cell plate from incubator and gently dispense 20 μL of 2×Fluo-4 Direct™ to 384 well cell culture plate. Incubate for 50 min at 37° C. 5% CO2 and 10 min at room temperature. Remove cell plate from incubator and place it into FLIPR (Molecular Devices). Place compound plate and tip box into FLIPR. For the dose response curve (DRC) plate: a) Run the Protocol on FLIPRTETRA. b) Transfer 10 μL of assay buffer from 384-well plate to the cell plates. c) Read fluorescence signal. d) Transfer 10 μL of the compounds from the DRC plate to the cell plates. e) Read fluorescence signal. f) Calculate the “Max-Min” starting from Read 90 to Maximum allowed. […] For the compound plate in antagonist test: a) Run the Protocol on FLIPRTETRA. b) Transfer 10 μL of references and compounds from the compound plate to the cell plates. c) Read fluorescence signal. d) Transfer 10 μL of 6×EC80 concentrations of agonist reference compounds to the cell plates. e) Read fluorescence signal. f) For antagonist test, calculate the “Max-Min” starting from Read 90 to Maximum allowed. h) Analyze the data using GraphPad Prism 5.0.

[3] = target: human NK-2 receptor (NK-2/HEK293) (Homo sapiens (Human), UniProt P21452); assay: NK-2 calcium flux FLIPR antagonist assay; assay type: cell-based; conditions: for inhibition at 10 µM: HEK293, NK-2, max dose 10000 nM; for IC50: NK-2 FLIPR antagonist mode
Sequence of human NK-2 receptor (NK-2/HEK293) (P21452 whole entry): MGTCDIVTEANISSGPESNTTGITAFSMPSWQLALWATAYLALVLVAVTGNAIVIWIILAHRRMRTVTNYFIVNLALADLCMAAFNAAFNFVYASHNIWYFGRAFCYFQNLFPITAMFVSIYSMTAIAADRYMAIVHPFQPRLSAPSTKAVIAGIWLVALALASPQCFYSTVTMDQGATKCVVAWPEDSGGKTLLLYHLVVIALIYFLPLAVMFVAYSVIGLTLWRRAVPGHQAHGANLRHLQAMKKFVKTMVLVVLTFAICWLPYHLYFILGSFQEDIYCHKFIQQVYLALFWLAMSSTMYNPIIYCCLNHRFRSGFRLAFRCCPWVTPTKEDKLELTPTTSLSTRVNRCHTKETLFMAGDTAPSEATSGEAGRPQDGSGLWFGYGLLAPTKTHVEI
Experimental: as §1, §2, §3, §4

[4] = target: human NK-3 receptor (NK-3/HEK293) (Homo sapiens (Human), UniProt P29371); assay: NK-3 calcium flux FLIPR antagonist assay; assay type: cell-based; conditions: for inhibition at 10 µM: HEK293, NK-3, max dose 10000 nM; for IC50: NK-3 FLIPR antagonist mode
Sequence of human NK-3 receptor (NK-3/HEK293) (P29371 whole entry): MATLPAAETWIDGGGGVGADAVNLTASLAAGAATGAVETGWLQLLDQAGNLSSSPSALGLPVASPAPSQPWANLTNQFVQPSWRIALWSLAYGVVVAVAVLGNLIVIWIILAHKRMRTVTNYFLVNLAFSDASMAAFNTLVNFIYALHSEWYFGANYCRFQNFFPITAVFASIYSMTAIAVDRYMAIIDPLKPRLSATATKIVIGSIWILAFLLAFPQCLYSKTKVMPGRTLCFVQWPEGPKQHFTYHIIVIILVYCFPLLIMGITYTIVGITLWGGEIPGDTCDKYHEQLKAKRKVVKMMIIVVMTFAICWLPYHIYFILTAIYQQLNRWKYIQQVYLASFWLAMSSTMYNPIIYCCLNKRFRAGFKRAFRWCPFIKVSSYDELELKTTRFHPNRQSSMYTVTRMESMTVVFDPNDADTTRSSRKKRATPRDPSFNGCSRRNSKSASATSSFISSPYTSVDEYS
Experimental: as §1, §2, §3, §4

human NK-1 receptor = human NK-1 receptor (Homo sapiens (Human), UniProt P25103); assay: Tag-Lite Tachykinin NK-1 receptor competitive binding assay (TR-FRET); conditions: Tag-Lite NK-1 labeled cells, read-out: IC50 on hNK-1 receptor
Sequence of human NK-1 receptor (P25103 whole entry): as the sequence (P25103 whole entry) above
Experimental: Human Tachykinin NK-1 receptor binding assay was performed using CisBio's Tag-Lite® Ligand binding assay. The homogeneous binding assay employees the time resolved fluorescence energy transfer (TR-FRET) technology. The potential inhibitory effect of Compound I and V on human NK-1 receptor was evaluated by TagLite® Tachykinin NK-1 receptor binding assay.
1. Tag-Lite® Tachykinin NK-1 receptor binding assay.
Materials: Tag-Lite® Tachykinin NK-1 labeled Cells, Tachykinin NK-1 Receptor red agonist Fluorescent Ligand (10 μMx50 μL), Tag-Lite Buffer (TLB) (5×concentration) (CisBio, Redford, Mass., U.S.A). [Sar9, Met(O2)11]-Substance P-Polypeptides (Tocris, Bristol, UK).
2. Competitive binding (Ki determination): Competitive binding assay measures the dissociation constant, To perform the assay, the compound is titrated into a solution containing a fixed concentration of fluorescent ligand and a fixed amount of cells.
Experimental procedure for competitive binding (Ki determination): Perform CisBio's Tag-Lite® Tachykinin NK-1 binding assay according to manufacturer's protocol. […] Incubate 2 h at room temperature, read the Signal665nm and Signal620nm using Evision. Data analysis was performed by calculating the Ratio following the formula below, the competitive binding data for each compound was analyzed with GraphPad Prism 5.0, and IC50 value was calculated for each compound.

[5] = Rat pharmacokinetic study; assay type: in vivo, male Sprague-Dawley rats; conditions: male, Sprague-Dawley, plasma
Experimental: For rat pharmacokinetic studies, male Sprague-Dawley rats were housed individually and fasted overnight before use. For Compound I and reference compound CP-122721, a single dose was administered to each rat in two groups (n=5/group) via intravenous (i.v.) administration at 4 mg/kg and oral (p.o.) administration of 20 mg/kg, respectively.
The vehicle used for i.v. administration was 10% HP-β-CD. The vehicle used for p.o. administration was 0.5% CMC-Na/0.1% Tween 80 in saline. Blood samples were collected at specified time-points following administration to individual rats within i.v. (pre-dose, 10 min, 0.5 h, 1 h, 2 h, 4 h, 6 h, 8 h, 12 h) and p.o. (pre-dose, 15 min, 0.5 h, 1 h, 2 h, 4 h, 8 h, 12 h, 24 h) group. Blood samples were clotted on ice immediately, plasma samples were then isolated by centrifugation and stored frozen (−80° C.) until further analysis. The concentrations of Compound I and CP-122721 were individually determined by LC/MS/MS assay. Various pharmacokinetic parameters were calculated using Phoenix™ WinNonlin® software. To quantify the bioconversion efficiency of the Compound I and CP-122721 in the circulation system, the bioavailability of Compound I and CP-122721 after p.o. administration was calculated.

[6] = 1 mg/kg p.o., day 2 (non-significant)
[7] = 1 mg/kg p.o., entire 72 h observation period

Row | inhibition at 10 µM [2] | IC50 [2] | inhibition at 10 µM [3] | IC50 [3] | inhibition at 10 µM [4] | IC50 [4] | SMILES | reduction of retches+vomits, overall combined acute and delayed response ([1]; 1 mg/kg p.o., 0-72 h) | reduction of retching+vomiting response ([1]; 1 mg/kg p.o., day 1 (acute)) | reduction of retching+vomiting response [1, 6] | reduction of retching+vomiting response ([1]; 1 mg/kg p.o., day 3) | reduction of retching+vomiting, entire delayed phase ([1]; 1 mg/kg p.o.) | reduction of total number of episodes [1, 7] | reduction of total number of retches [1, 7] | reduction of total number of vomits [1, 7] | also measured
1 | – | – | – | – | – | – | C[C@@H](O[C@H]1OCCN(Cc2n[nH]c(=O)[nH]2)[C@H]1c1ccc(F)cc1)c1cc(C(F)(F)F)cc(C(F)(F)F)c1 [aprepitant, reference compound] | 67.4% | 76.5% | 46.7% | 73.3% | 59.4% | 64.0% | 67.9% | 64.6% | superiority in reduction of retches+vomits over Compound I 0.1 mg/kg ([1]; aprepitant 1 mg/kg p.o. vs Compound I 0.1 mg/kg, 0-72 h): 43.5%; superiority in reduction of retches over Compound I 0.1 mg/kg ([1]; aprepitant 1 mg/kg p.o. vs Compound I 0.1 mg/kg, 72 h): 46%
2 | 101% | 0.0222 µM | 1% | > 10 µM | 29% | > 10 µM | [2H]C([2H])([2H])Oc1ccc(S(F)(F)(F)(F)F)cc1CN[C@H]1CCCN[C@H]1c1ccccc1 [Compound IV, (2S,3S)—N-(2-(methoxy-d3)-5-(pentafluorosulfanyl)benzyl)-2-phenylpiperidin-3-amine] | – | – | – | – | – | – | – | – | –
3 | 102% | 0.00615 µM | 15% | > 10 µM | 26% | > 10 µM | COc1ccc(S(F)(F)(F)(F)F)cc1CN[C@H]1CCCN[C@H]1c1ccccc1 [Compound I, (2S,3S)—N-(2-methoxy-5-(pentafluorosulfanyl)benzyl)-2-phenylpiperidin-3-amine] | 52.2% | 64.5% | 22.7% | 67.5% | 41.3% | 59.0% | 51.3% | 57.3% | IC50 (human NK-1 receptor): 0.00064 µM; AUC(0-t) ([5]; iv, 4 mg/kg): 663 ng·h/mL; half-life ([5]; iv, 4 mg/kg): 1.84 h; bioavailability ([5]; oral, p.o. 20 mg/kg vs i.v. 4 mg/kg): 22.4%; AUC(0-t) ([5]; po, 20 mg/kg): 740 ng·h/mL; Cmax ([5]; po, 20 mg/kg): 202 ng/mL; Tmax ([5]; po, 20 mg/kg): 1.4 h; half-life ([5]; po, 20 mg/kg): 1.9 h; reduction of retches+vomits, overall combined acute and delayed response ([1]; 0.1 mg/kg p.o., 0-72 h): 23.9%; reduction of retches ([1]; 0.1 mg/kg p.o., entire 72 h observation period): 21.9%

From patent US11149006B2, “Compounds as neurokinin-1 receptor antagonists and uses thereof” (XW LABORATORIES INC., priority 2018, dated 2021)
